Experiments:
Format in all cases: in vivo
[1] = system: Setaria faberi (SETFA); experiment: Pre-Emergence Test (herbicidal, glasshouse pots); conditions: evaluated after 13 days, five-point scale
[2] = system: Setaria faberi (SETFA); experiment: Post-Emergence Test (herbicidal, glasshouse pots); conditions: rate 1000 g/ha; evaluated after 13 days
Description: (§1) Seeds of a variety of test species are sown in standard soil in pots (Setaria faberi (SETFA), Ipomoea hederacea (IPOHE), Echinochloa crus-galli (ECHCG), (Amaranthus retoflexus (AMARE), Zea mays (ZEAMX), and Amaranthus palmeri (AMAPA)). After 8 days cultivation under controlled conditions in a glasshouse (at 24° C./16° C., day/night; 14 hours light; 65% humidity), the plants arm sprayed with an aqueous spray solution derived from the formulation of the technical active ingredient in acetone/water (50:50) solution containing 0.5% Tween 20 (polyoxyethylene sorbitan monolaurate, CAS RN 9005-84-5). Rate of application is shown in g/ha in the tables below. The test plants are then grown in a glasshouse under controlled conditions in a glasshouse (at 24° C./16° C., day/night; 14 hours light; 65% humidity) and watered twice daily. After 13 days the test is evaluated for the percentage damage caused to the plant. The biological activities are shown in the following table on a five-point scale (5=81-100%; 4=61-80%; 3=41-60%; 2=21-40%; 1=0-20%; -=not tested).

[3] = system: Ipomoea hederacea (IPOHE); experiment: Post-Emergence Test (herbicidal, glasshouse pots); conditions: evaluated after 13 days
Description: as §1

[4] = system: Echinochloa crus-galli (ECHCG); experiment: Post-Emergence Test (herbicidal, glasshouse pots); conditions: evaluated after 13 days
Description: as §1

[5] = system: Amaranthus palmeri (AMAPA); experiment: Post-Emergence Test (herbicidal, glasshouse pots); conditions: evaluated after 13 days
Description: as §1

[6] = system: Zea mays (ZEAMX); experiment: Post-Emergence Test (herbicidal, glasshouse pots); conditions: evaluated after 13 days
Description: as §1

[7] = system: Amaranthus retoflexus (AMARE); experiment: Post-Emergence Test (herbicidal, glasshouse pots); conditions: evaluated after 13 days
Description: as §1

[8] = system: Amaranthus retoflexus (AMARE); experiment: Pre-Emergence Test (herbicidal, glasshouse pots); conditions: evaluated after 13 days, five-point scale
[9] = system: Amaranthus palmeri (AMAPA); experiment: Pre-Emergence Test (herbicidal, glasshouse pots); conditions: evaluated after 13 days, five-point scale
[10] = system: Zea mays (ZEAMX); experiment: Pre-Emergence Test (herbicidal, glasshouse pots); conditions: evaluated after 13 days, five-point scale
[11] = system: Ipomoea hederacea (IPOHE); experiment: Pre-Emergence Test (herbicidal, glasshouse pots); conditions: evaluated after 13 days, five-point scale
[12] = system: Echinochloa crus-galli (ECHCG); experiment: Pre-Emergence Test (herbicidal, glasshouse pots); conditions: evaluated after 13 days, five-point scale

Row | SMILES | percentage damage caused to the plant, SETFA ([1]; rate 1000 g/ha) | Post-Emergence Test SETFA percentage damage (five-point scale) [2] | Post-Emergence Test IPHOE percentage damage (five-point scale) ([3]; rate 1000 g/ha) | Post-Emergence Test ECHCG percentage damage (five-point scale) ([4]; rate 1000 g/ha) | Post-Emergence Test AMAPA percentage damage (five-point scale) ([5]; rate 1000 g/ha) | Post-Emergence Test ZEAMX percentage damage (five-point scale) ([6]; rate 1000 g/ha) | Post-Emergence Test AMARE percentage damage (five-point scale) ([7]; rate 1000 g/ha) | percentage damage caused to the plant, AMARE ([8]; rate 1000 g/ha) | percentage damage caused to the plant, AMAPA ([9]; rate 1000 g/ha) | percentage damage caused to the plant, ZEAMX ([10]; rate 1000 g/ha) | percentage damage caused to the plant, IPHOE ([11]; rate 1000 g/ha) | percentage damage caused to the plant, ECHCG ([12]; rate 1000 g/ha) | other results
1 | CCn1c(Oc2cccc(Cl)c2)cc(=O)c(C(=O)O)c1-c1ccc(Cl)c(Cl)c1 [Compound 2, 6-(3-chlorophenoxy)-2-(3,4-dichlorophenyl)-1-ethyl-4-oxo-pyridine-3-carboxylic acid] | 5 (5=81-100%) | 4 (4=61-80%) | 3 (3=41-60%) | 4 (4=61-80%) | 4 (4=61-80%) | 3 (3=41-60%) | 4 (4=61-80%) | 2 (2=21-40%) | 1 (1=0-20%) | 2 (2=21-40%) | 4 (4=61-80%) | 4 (4=61-80%) | –
2 | CCn1c(Oc2ccccc2F)cc(=O)c(C(=O)O)c1-c1ccc(Cl)c(Cl)c1 [Compound 3, 2-(3,4-dichlorophenyl)-1-ethyl-6-(2-fluorophenoxy)-4-oxo-pyridine-3-carboxylic acid] | 5 (5=81-100%) | 4 (4=61-80%) | 3 (3=41-60%) | 4 (4=61-80%) | 2 (2=21-40%) | 2 (2=21-40%) | 3 (3=41-60%) | 2 (2=21-40%) | 1 (1=0-20%) | 2 (2=21-40%) | 4 (4=61-80%) | 4 (4=61-80%) | –
3 | CCn1c(Oc2ccc(F)cc2)cc(=O)c(C(=O)O)c1-c1ccc(Cl)c(Cl)c1 [Compound 4, 2-(3,4-dichlorophenyl)-1-ethyl-6-(4-fluorophenoxy)-4-oxo-pyridine-3-carboxylic acid] | 5 (5=81-100%) | 4 (4=61-80%) | 3 (3=41-60%) | 4 (4=61-80%) | 4 (4=61-80%) | 3 (3=41-60%) | 4 (4=61-80%) | 3 (3=41-60%) | 3 (3=41-60%) | 3 (3=41-60%) | 4 (4=61-80%) | 5 (5=81-100%) | –
4 | CCn1c(Nc2ccc(F)cc2)cc(=O)c(C(=O)O)c1-c1ccc(Cl)c(Cl)c1 [Compound 9, 2-(3,4-dichlorophenyl)-1-ethyl-6-(4-fluoroanilino)-4-oxo-pyridine-3-carboxylic acid] | – | – | – | – | – | – | – | – | – | – | – | – | percentage damage caused to the plant, SETFA ([1]; rate 250 g/ha): 0; Post-Emergence Test IPHOE percentage damage (five-point scale) ([3]; rate 250 g/ha): 4 (4=61-80%); Post-Emergence Test ECHCG percentage damage (five-point scale) ([4]; rate 250 g/ha): 1 (1=0-20%); Post-Emergence Test AMAPA percentage damage (five-point scale) ([5]; rate 250 g/ha): 1 (1=0-20%); Post-Emergence Test ZEAMX percentage damage (five-point scale) ([6]; rate 250 g/ha): 0; Post-Emergence Test AMARE percentage damage (five-point scale) ([7]; rate 250 g/ha): 2 (2=21-40%); percentage damage caused to the plant, AMARE ([8]; rate 250 g/ha): 0; percentage damage caused to the plant, AMAPA ([9]; rate 250 g/ha): 1 (1=0-20%); percentage damage caused to the plant, ZEAMX ([10]; rate 250 g/ha): 0; percentage damage caused to the plant, IPHOE ([11]; rate 250 g/ha): 0; percentage damage caused to the plant, ECHCG ([12]; rate 250 g/ha): 0
5 | CCn1c(Oc2ccc(OC(F)(F)F)cc2)cc(=O)c(C(=O)O)c1-c1ccc(Cl)c(Cl)c1 [Compound 20, 2-(3,4-dichlorophenyl)-1-ethyl-4-oxo-6-[4-(trifluoromethoxy)phenoxy]pyridine-3-carboxylic acid] | 5 (5=81-100%) | 5 (5=81-100%) | 3 (3=41-60%) | 4 (4=61-80%) | 3 (3=41-60%) | 3 (3=41-60%) | 4 (4=61-80%) | 4 (4=61-80%) | 4 (4=61-80%) | 3 (3=41-60%) | 2 (2=21-40%) | 5 (5=81-100%) | –
6 | CCn1c(Oc2ccc(OC)c(OC)c2)cc(=O)c(C(=O)O)c1-c1ccc(Cl)c(Cl)c1 [Compound 21, 2-(3,4-dichlorophenyl)-6-(3,4-dimethoxyphenoxy)-1-ethyl-4-oxo-pyridine-3-carboxylic acid] | 4 (4=61-80%) | 5 (5=81-100%) | 3 (3=41-60%) | 1 (1=0-20%) | 3 (3=41-60%) | 1 (1=0-20%) | 4 (4=61-80%) | 1 (1=0-20%) | 1 (1=0-20%) | 1 (1=0-20%) | 3 (3=41-60%) | 2 (2=21-40%) | –
7 | CCn1c(Nc2ncc(F)cc2F)cc(=O)c(C(=O)O)c1-c1ccc(Cl)c(Cl)c1 [Compound 31, 2-(3,4-dichlorophenyl)-6-[(3,5-difluoro-2-pyridyl)amino]-1-ethyl-4-oxo-pyridine-3-carboxylic acid] | – | – | 2 (2=21-40%) | 1 (1=0-20%) | 2 (2=21-40%) | 0 | 2 (2=21-40%) | 1 (1=0-20%) | 0 | 1 (1=0-20%) | 1 (1=0-20%) | 1 (1=0-20%) | –
8 | CCn1c(Oc2cccnc2F)cc(=O)c(C(=O)O)c1-c1ccc(Cl)c(Cl)c1 [Compound 34, 2-(3,4-dichlorophenyl)-1-ethyl-6-[(2-fluoro-3-pyridyl)oxy]-4-oxo-pyridine-3-carboxylic acid] | – | – | 2 (2=21-40%) | 4 (4=61-80%) | 3 (3=41-60%) | 3 (3=41-60%) | 3 (3=41-60%) | 3 (3=41-60%) | 2 (2=21-40%) | 4 (4=61-80%) | 3 (3=41-60%) | 4 (4=61-80%) | –
